This test concerns IL-10. As to the kind of experiment: Measurement of IL-10 increase rate (LPS-induced inflammation in mice, serum IL-10 by ELISA). The format is in vivo. Conditions: Mus musculus, 2 h, oral 100 mg/kg in 0.5% methyl cellulose, LPS 0.4 mg/kg i.p. one hour later, serum taken one hour after LPS, % control ratio vs 0.5% methyl cellulose group, read-out: IL10 Increase Rate (%). As to the method:
A test substance was suspended in a 0.5% (w/v) methyl cellulose and orally administered to mice at a dose of 100 mg/kg. One hour later, a lipopolysaccharide (LPS, Sigma-Aldrich, L2630 (trade name)) (0.4 mg/kg) was intraperitoneally administered to induce inflammation. One hour after administration of LPS, blood was taken from the vena cava under anesthesia with isoflurane, placed in a tube containing a serum separating agent, allowed to stand still at room temperature for 20-30 minutes and centrifuged at 4° C. at 12,000 rpm for 5 minutes to obtain the serum. Thereafter, the amount of the IL-10 in the serum was measured by using Mouse IL-10 Quantikine ELISA Kit (R&D systems, M1000B (trade name)) or Mouse IL-10 Immunoassay kit (PerkinElmer, AL502 (trade name)) in accordance with the protocol of the kit. The serum was diluted 10 times with the dilution solution contained in the kit and put in use. IL-10 increase rate (% control ratio) of the compound was calculated in accordance with the following expression: IL-10 increase rate (% control ratio) (IL10 amount in compound administration group)×100/(IL-10 amount in 0.5% (w/v) methyl cellulose administration group)

`Cn1c(COc2cccc(C(F)(F)F)c2)nnc1[C@H]1CC[C@H](c2cnn([C@@H]3CC[C@@H](CN4CCC4)OC3)c2)CC1` [Example 22, 1,5-Anhydro-6-azetidin-1-yl-2,3,4,6-tetradeoxy-2-{4-[trans-4-(4-methyl-5-{[3-(trifluoromethyl)phenoxy]methyl}-4H-1,2,4-triazol-3-yl)cyclohexyl]-1H-pyrazol-1-yl}-D-erythro-hexitol]: the response vs control in vivo at 100 mg/kg was determined as 113%.
As for `CN1CCC(c2cn(-c3ccc(-c4nnc(COc5cccc(C(F)(F)F)c5)n4C)cc3)cn2)CC1` [Example 18, 1-Methyl-4-{1-[4-(4-methyl-5-{[3-(trifluoromethyl)phenoxy]methyl}-4H-1,2,4-triazol-3-yl)phenyl]-1H-imidazol-4-yl}piperidine], the response vs control in vivo at 100 mg/kg turned out to be 157%.
As to `Cn1c(COC2CCCC(C(F)(F)F)C2)nnc1[C@H]1CC[C@H](c2cnn([C@H]3CC[C@H](N4CC5(CCOC5)C4)CC3)c2)CC1` (stereo partly drawn) [Example 32, 2-[trans-4-(4-{trans-4-[4-Methyl-5-({[3-(trifluoromethyl)cyclohexyl]oxy}methyl)-4H-1,2,4-triazol-3-yl]cyclohexyl}-1H-pyrazol-1-yl)cyclohexyl]-6-oxa-2-azaspiro[3.4]octane], the response vs control in vivo at 100 mg/kg was found to be 202%.
As for `CC(C)c1cccc(O[C@H](C)c2nnc([C@H]3CC[C@H](n4cc([C@@H]5CC[C@@H](N(C)C)CO5)nn4)CC3)n2C)c1` [Example 8, (3R,6S)—N,N-Dimethyl-6-{1-[trans-4-(4-methyl-5-{(1R)-1-[3-(propan-2-yl)phenoxy]ethyl}-4H-1,2,4-triazol-3-yl)cyclohexyl]-1H-1,2,3-triazol-4-yl}tetrahydro-2H-pyran-3-amine], the response vs control in vivo at 100 mg/kg was 197%.
As for `COC(=O)c1cccc(OCc2nnc([C@H]3CC[C@H](c4cnn([C@H]5CC[C@H](N6CC7(COC7)C6)CC5)c4)CC3)n2C)c1` [Example 31, Methyl 3-{[4-methyl-5-(trans-4-{1-[trans-4-(2-oxa-6-azaspiro[3.3]hept-6-yl)cyclohexyl]-1H-pyrazol-4-yl}cyclohexyl)-4H-1,2,4-triazol-3-yl]methoxy}benzoate], the figure is 222%; as for `Cn1c(COc2cc(C(F)(F)F)ccn2)nnc1[C@H]1CC[C@H](c2cnn([C@H]3CC[C@H](N4CC5(CCOC5)C4)CC3)c2)CC1` [Example 27, 2-[trans-4-(4-{trans-4-[4-Methyl-5-({[4-(trifluoromethyl)pyridin-2-yl]oxy}methyl)-4H-1,2,4-triazol-3-yl]cyclohexyl}-1H-pyrazol-1-yl)cyclohexyl]-6-oxa-2-azaspiro[3.4]octane], 255%; as for `CN1CCC(F)(c2cn([C@H]3CC[C@H](c4nnc5n4CCCC5Oc4cccc(C(F)(F)F)c4)CC3)nn2)CC1` (stereo partly drawn) [Example 15, 3-{trans-4-[4-(4-Fluoro-1-methylpiperidin-4-yl)-1H-1,2,3-triazol-1-yl]cyclohexyl}-8-[3-(trifluoromethyl)phenoxy]-5,6,7,8-tetrahydro[1,2,4]triazolo[4,3-a]pyridine], 227%.
As to `COC(=O)c1cccc(OCc2nnc([C@H]3CC[C@H](c4cnn([C@H]5CC[C@H](N6CCC6)CC5)c4)CC3)n2C)c1` [Example 30, Methyl 3-{[5-(trans-4-{1-[trans-4-(azetidin-1-yl)cyclohexyl]-1H-pyrazol-4-yl}cyclohexyl)-4-methyl-4H-1,2,4-triazol-3-yl]methoxy}benzoate], the response vs control in vivo at 100 mg/kg was 141%.
As for `CC(C)c1cccc(O[C@H](C)c2nnc([C@H]3CC[C@H](C4=NOC5(CCN(C)CC5)C4)CC3)n2C)c1` [Example 36, 8-Methyl-3-[trans-4-(4-methyl-5-{(1R)-1-[3-(propan-2-yl)phenoxy]ethyl}-4H-1,2,4-triazol-3-yl)cyclohexyl]-1-oxa-2,8-diazaspiro[4.5]dec-2-ene], the figure is 230%.
For `Cn1c(COc2cccc(C(F)(F)F)c2)nnc1[C@H]1CC[C@H](n2cc([C@H]3CC[C@H](N4CCC4)CC3)cn2)CC1` [Example 17, 3-(trans-4-{4-[trans-4-(Azetidin-1-yl)cyclohexyl]-1H-pyrazol-1-yl}cyclohexyl)-4-methyl-5-{[3-(trifluoromethyl)phenoxy]methyl}-4H-1,2,4-triazole], the response vs control in vivo at 100 mg/kg came out at 334%.
Take `CN(C)C12CC(c3cn([C@H]4CC[C@H](c5nnc(COc6cccc(C(F)(F)F)c6)n5C)CC4)nn3)(C1)C2` [Example 12, N,N-Dimethyl-3-{1-[trans-4-(4-methyl-5-{[3-(trifluoromethyl)phenoxy]methyl}-4H-1,2,4-triazol-3-yl)cyclohexyl]-1H-1,2,3-triazol-4-yl}bicyclo[1.1.1]pentan-1-amine]: the response vs control in vivo at 100 mg/kg turned out to be 177%.
For `Cn1c(COc2cccc(C(F)(F)F)c2)nnc1[C@H]1CC[C@H](n2cc(C34CCC(CN5CCC5)(CC3)CC4)nn2)CC1` [Example 10, 4-[4-(Azetidin-1-ylmethyl)bicyclo[2.2.2]oct-1-yl]-1-[trans-4-(4-methyl-5-{[3-(trifluoromethyl)phenoxy]methyl}-4H-1,2,4-triazol-3-yl)cyclohexyl]-1H-1,2,3-triazole], the response vs control in vivo at 100 mg/kg was 390%.
`Cn1c(COc2cc(C(F)(F)F)ccn2)nnc1[C@H]1CC[C@H](c2cnn([C@H]3CC[C@H](N4CC5(COC5)C4)CC3)c2)CC1` [Example 24, 6-[trans-4-(4-{trans-4-[4-Methyl-5-({[4-(trifluoromethyl)pyridin-2-yl]oxy}methyl)-4H-1,2,4-triazol-3-yl]cyclohexyl}-1H-pyrazol-1-yl)cyclohexyl]-2-oxa-6-azaspiro[3.3]heptane]: the response vs control in vivo at 100 mg/kg amounted to 257%.
Consider `Cn1c(COc2cc(C(F)(F)F)ccn2)nnc1[C@H]1CC[C@H](c2cnn([C@H]3C[C@H](O)[C@@H](N4CCC4)C3)c2)CC1` (racemic) [Example 28, (1SR,2SR,4RS)-2-(Azetidin-1-yl)-4-(4-{trans-4-[4-methyl-5-({[4-(trifluoromethyl)pyridin-2-yl]oxy}methyl)-4H-1,2,4-triazol-3-yl]cyclohexyl}-1H-pyrazol-1-yl)cyclopentanol], for which the response vs control in vivo at 100 mg/kg was found to be 113%.
With `CN(C)C12CCC(c3cn([C@H]4CC[C@H](c5nnc(COc6cccc(C(F)(F)F)c6)n5C)CC4)nn3)(CC1)CC2` [Example 11, N,N-Dimethyl-4-{1-[trans-4-(4-methyl-5-{[3-(trifluoromethyl)phenoxy]methyl}-4H-1,2,4-triazol-3-yl)cyclohexyl]-1H-1,2,3-triazol-4-yl}bicyclo[2.2.2]octan-1-amine], the response vs control in vivo at 100 mg/kg is 180%.
`CC(C)c1cccc(OCc2nnc([C@@H]3CC[C@@H](n4cc(C5(F)CCN(C)CC5)nn4)CO3)n2C)c1` [Example 13, 4-Fluoro-1-methyl-4-{1-[(3R,6S)-6-(4-methyl-5-{[3-(propan-2-yl)phenoxy]methyl}-4H-1,2,4-triazol-3-yl)tetrahydro-2H-pyran-3-yl]-1H-1,2,3-triazol-4-yl}piperidine]: the response vs control in vivo at 100 mg/kg is 156%.
In the case of `Cn1c(COc2cccc(C(F)(F)F)c2)nnc1[C@H]1CC[C@H](c2cnn([C@H]3CC[C@H](N4CCC4)CC3)c2)CC1` [Example 21, 3-(trans-4-{1-[trans-4-(Azetidin-1-yl)cyclohexyl]-1H-pyrazol-4-yl}cyclohexyl)-4-methyl-5-{[3-(trifluoromethyl)phenoxy]methyl}-4H-1,2,4-triazole], the response vs control in vivo at 100 mg/kg stood at 312%.
As for `CN(C)C12CCC(c3cn([C@H]4CC[C@H](c5nnc(COc6cccc(C(F)(F)F)c6)n5C)CC4)nn3)(CC1)OC2` [Example 9, N,N-Dimethyl-1-{1-[trans-4-(4-methyl-5-{[3-(trifluoromethyl)phenoxy]methyl}-4H-1,2,4-triazol-3-yl)cyclohexyl]-1H-1,2,3-triazol-4-yl}-2-oxabicyclo[2.2.2]octan-4-amine], the response vs control in vivo at 100 mg/kg amounted to 182%.
Turning to `CN1CCC(F)(c2cn([C@H]3CC[C@H](c4nnc(COc5ccc(Cl)c(C(F)(F)F)c5)n4C)CC3)nn2)CC1` [Example 5, 4-{1-[trans-4-(5-{[4-Chloro-3-(trifluoromethyl)phenoxy]methyl}-4-methyl-4H-1,2,4-triazol-3-yl)cyclohexyl]-1H-1,2,3-triazol-4-yl}-4-fluoro-1-methylpiperidine], the response vs control in vivo at 100 mg/kg is 206%.
Take `Cn1c(COc2cc(C(F)(F)F)ccn2)nnc1[C@H]1CC[C@H](c2cnn([C@H]3CC[C@H](N4CCOCC4)CC3)c2)CC1` [Example 23, 4-[trans-4-(4-{trans-4-[4-Methyl-5-({[4-(trifluoromethyl)pyridin-2-yl]oxy}methyl)-4H-1,2,4-triazol-3-yl]cyclohexyl}-1H-pyrazol-1-yl)cyclohexyl]morpholine]: the response vs control in vivo at 100 mg/kg worked out at 232%.
The figure for `CC(C)c1cccc(OCc2nnc([C@H]3CC[C@H](n4cc(C5(F)CCN(C)CC5)nn4)CC3)n2C)c1` [Example 3, 4-Fluoro-1-methyl-4-{1-[trans-4-(4-methyl-5-{[3-(propan-2-yl)phenoxy]methyl}-4H-1,2,4-triazol-3-yl)cyclohexyl]-1H-1,2,3-triazol-4-yl}piperidine] is 179%.
Take `CN1CCC(c2cnn(-c3ccc(-c4nnc(COc5cccc(C(F)(F)F)c5)n4C)cc3)c2)CC1` [Example 16, 1-Methyl-4-{1-[4-(4-methyl-5-{[3-(trifluoromethyl)phenoxy]methyl}-4H-1,2,4-triazol-3-yl)phenyl]-1H-pyrazol-4-yl}piperidine]: the response vs control in vivo at 100 mg/kg was 170%.

(Values after patent US12297187B2, “Compound having cyclic structure” (Daiichi Sankyo Company, Limited, priority 2017, dated 2025).)
